Values of other authors in patent publication US20060127456A1, “Novel fiber-based consumer products based on new concepts of fiber modification” (priority 2004, published 2006).

## II [Iodine]
In 1% aqueous solution of PVP, versus water
  increase of solubility: ~17 fold
water
  solubility in water: very sparingly soluble
